This is an account of results in US7625948B2, “Ester compound and medicinal use thereof” (Japan Tobacco Inc., priority 2002, dated 2009).

The nature of data set [1]: Test Example 6: determination of the concentration in plasma (unchanged form and metabolite, orbital venous plexus and portal vein, LC/MS). The settings on record: hamster, oral, Syrian hamsters; for concentration at 1 h: 1 h after 30 mg/kg p.o.; for concentration at 2 h: 2 h after 30 mg/kg p.o.; for concentration at 4 h: 4 h after 30 mg/kg p.o. Format: in vivo. How it is done: Determination of the Concentration in Plasma Syrian hamsters (9-15 weeks of age) under non-fasted conditions were used in the test. A sample was suspended in 0.5% methyl cellulose (vehicle), and the suspension was forced to be administered orally to the hamsters at a dose of 30 or 100 mg/2 mL/kg. After a fixed period of time, blood was partly collected from orbital venous plexus, and the hamsters were subjected to laparotomy under ether anesthesia, and then blood was collected from portal vein. The blood was immediately cooled with ice to separate plasma. A portion of the plasma was extracted with an organic solvent and the supernatant was recovered. Concentration of the sample (unchanged form) and that of the metabolite in the supernatant were determined quantitatively by high performance liquid chromatography/mass spectrometry (LC/MS) comparing with chromatogram of synthetic standard.

The subject of data set [2] is Syrian hamsters. Put plainly: Test Example 4: liver TG release inhibition test (Triton WR 1339). Format: in vivo. The settings on record: Triton WR 1339, plasma TG release velocity over 2 h, fasted Syrian hamsters. How it is done:
Liver TG Release Inhibition Test
Syrian hamsters (9 to 11 weeks of age) which were fasted for one day were used in the test. Blood was collected previously from orbital venous plexus, and a sample was forced to be administered orally to the hamsters at a dose of 30, 100 or 300 mg/2 mL/kg, and the same amount of vehicle was administered to the control group. Triton WR 1339 (2 mL/kg) was intravenously administered to the hamsters 30 minutes after the above administration. Two hours later, blood was collected from orbital venous plexus, and plasma was separated from the blood. The amount of TG in the plasma was determined by automatic analyzer (Hitachi Co.). The data was expressed in terms of TG release velocity (mg/dL/min)=(value at 2nd hour minus value before administration)/120. Inhibition rate (%) was calculated from the data obtained on the basis of the following equation.
Inhibition rate (%)=100×(1 minus TG release velocity of sample/TG release velocity of control group).

Data set [3] deals with Syrian hamsters. As to the kind of experiment: Test Example 3: olive oil-loading test (inhibition of fat absorption, plasma TG). Format: in vivo. The settings on record: Mesocricetus auratus, po; 100 mg/kg p.o.; plasma TG 4 hours after olive oil; read-out: Test Example 3 Inhibition of fat absorption after olive oil-loading in Hamster Inhibition rate (%).
In the next data set the test system is Japanese white rabbits. As to the kind of experiment: Test Example 5: combination use test in cholesterol-loaded rabbit model (plasma cholesterol). Format: in vivo. The settings on record: 10 mg/kg in high cholesterol diet, from grouping to the 4th day. How it is done: Japanese white rabbits (male, 19 weeks of age, JW, purchased from Kitayama Labes Co., Ltd.) were fed previously in such a way that they were fed a high cholesterol diet (0.3% cholesterol+3% peanut oil-added RC-4, Product of Oriental Yeast Co., Ltd.) of 70 g/day under limited feeding for one day. The rabbits thus fed were used as a cholesterol-loaded rabbit model, and the grouping of such model was carried out in such a way that there might be no variation in the amount of plasma cholesterol among each group (five rabbits/group). […] The rabbits were fed 70 g of each diet every morning. Blood was collected from auricular artery 6 hours after the feeding on the 4th day of the administration, and cholesterol level in plasma was assayed. In the table, increased amount of plasma cholesterol during from the time of grouping to the 4th day was shown.

A short description of data set [4]: Test Example 7: metabolic stability test in human liver S9. The settings on record: human liver S9, 2 mg protein/mL, 37° C. Format: in vitro ADME. How it is done:
(§1) Metabolic Stability Test in Liver S9 and Small Intestine S9
(§2) Human and hamster liver S9 (final concentration: 2 mg protein/mL), and human and hamster small intestine S9 (final concentration: 2 mg protein/mL) were each suspended in 100 mM potassium phosphate buffer (pH 7.4, containing β-nicotinamide adenine dinucleotide phosphate: 1.3 mM, D-glucose-6-phosphate: 3.3 mM, magnesium chloride: 3.3 mM, glucose-6-phosphate dehydrogenase: 0.4 U/mL). The suspensions were mixed with a solution of a sample (Example 2-5) in DMSO. The solutions were incubated at 37° C. for 0, 10 and 60 minutes, and an organic solvent was added thereto. The solutions were centrifuged, and the concentration of the sample (unchanged form) in the supernatant was determined by high performance liquid chromatography/mass spectrometry (LC/MS). Based on the data obtained, remaining rate (%) was calculated according to the following equation.
(§3) Remaining rate(%)=amount of sample 10 or 60 minutes after incubation/amount of sample at zero time after incubation×100

Data set [5] is described as follows: Test Example 7: metabolic stability test in hamster liver S9. Format: in vitro ADME. To be noted: hamster liver S9, 2 mg protein/mL, 37° C. How it is done: as §1, §2, §3
Data set [6] in a line: Test Example 7: metabolic stability test in human small intestine S9. Format: in vitro ADME. To be noted: human small intestine S9, 2 mg protein/mL, 37° C. How it is done: as §1, §2, §3
Data set [7] can be described thus: Test Example 7: metabolic stability test in hamster small intestine S9. Format: in vitro ADME. To be noted: hamster small intestine S9, 2 mg protein/mL, 37° C. The method, then: as §1, §2, §3
Where [8] appears, read: plasma from peripheral blood (orbital venous plexus), read-out: Concentration in plasma, unaltered form, peripheral blood.
[9] abbreviates: plasma from portal vein blood, read-out: Concentration in plasma, unaltered form, blood of portal vein.

Where two headings read alike, the source gives them in different places. A value given as a limit tells only on which side of the number the result lay.

`CCOC(=O)C(COC(=O)Cc1ccc(OC(=O)c2ccccc2-c2ccc(C(F)(F)F)cc2)cc1)(C(=O)OCC)c1ccccc1` [Example 1-2, 2-Phenyl-2-{2-[4-(4′-trifluoromethylbiphenyl-2-carbonyloxy)phenyl]acetoxymethyl}malonic acid diethyl ester]: in data set [1] (setting [8]), the concentration at 1 h was less than 200 nM, the concentration at 2 h is less than 200 nM and the concentration at 4 h was less than 200 nM. Moreover, in data set [1] (setting [9]), the concentration at 1 h is less than 200 nM, the concentration at 2 h is less than 200 nM and the concentration at 4 h is less than 200 nM.
As for `CCNC(=O)C(COC(=O)Cc1ccc(NC(=O)c2ccccc2-c2ccc(C(F)(F)F)cc2)cc1)(C(=O)NCC)c1ccccc1` [Example 1, 4-[(4′-Trifluoromethylbiphenyl-2-carbonyl)amino]phenyl-acetic acid 2,2-bisethylcarbamoyl-2-phenylethyl ester], the “Inhibition of liver TG release in Hamster, Inhibition rate(%)” value (from here on “Inhibition … Inhibition rate(%)”) with Syrian hamsters [2] (300 mg/kg p.o.) was 19(300) %. For the same molecule, in the data set on Syrian hamsters [3], the inhibition in vivo at 100 mg/kg worked out at 57%.
As for `O=C(Cc1ccc(NC(=O)c2ccccc2-c2ccc(C(F)(F)F)cc2)cc1)OCC(C(=O)NCC(F)(F)F)(C(=O)NCC(F)(F)F)c1ccccc1` [Example 1-12], in data set [1] (setting [8]), the concentration at 1 h was less than 200 nM, the concentration at 2 h is less than 200 nM and the concentration at 4 h was less than 200 nM. Also, in data set [1] (setting [9]), the concentration at 1 h was less than 200 nM, the concentration at 2 h was less than 200 nM and the concentration at 4 h is less than 200 nM.
For `CCOC(=O)C(COC(=O)Cc1ccc(NC(=O)c2ccccc2-c2ccc(C(F)(F)F)cc2)c(C(=O)N(C)C)c1)(C(=O)OCC)c1ccccc1` [Example 2-5], the “Inhibition … Inhibition rate(%)” value in the data set with Syrian hamsters [2] (100 mg/kg p.o.) is listed as 0(100) %. Also, in the data set with Japanese white rabbits, the “Increased amount of total cholesterol” value was determined as 8.6 mg/dL. Moreover, the concentration at 1 h was less than 20 nM in data set [1] (setting [8]) and 10 nM in data set [1] (setting [9]). For the same molecule, the values for the concentration at 2 h in data set [1] (setting [8]) and in data set [1] (setting [9]) were less than 20 nM and 30 nM, respectively. For the same molecule, the concentration at 4 h in data set [1] (setting [8]) is less than 20 nM; in data set [1] (setting [9]) it was 10 nM. Moreover, the “Remaining rate (%) after 10 min.” value was 7.9% in data set [4] (10 min), 2.4% in data set [5] (10 min), 97.6% in data set [6] (10 min) and 29.0% in data set [7] (10 min). The “Remaining rate (%) after 60 min.” value in data set [4] (60 min) turned out to be 4.3%; in data set [5] (60 min), 0%; in data set [6] (60 min), 91.5%; in data set [7] (60 min), 14.1%.
`COC(=O)C(COC(=O)Cc1ccc(NC(=O)c2ccccc2-c2ccc(C(F)(F)F)cc2)cc1)(C(=O)OC)c1ccccc1` [Example 1-13]: in data set [1] (setting [8]), the concentration at 1 h is less than 200 nM, the concentration at 2 h was less than 200 nM and the concentration at 4 h was less than 200 nM. Also, in data set [1] (setting [9]), the concentration at 1 h was less than 200 nM, the concentration at 2 h was less than 200 nM and the concentration at 4 h is less than 200 nM.
As to `CCNC(=O)C(COC(=O)Cc1ccc(NC(=O)c2ccccc2-c2ccc(C(F)(F)F)cc2)c(OC)c1)(C(=O)NCC)c1ccccc1` [Example 3-3], the “Inhibition … Inhibition rate(%)” value in the data set on Syrian hamsters [2] (100 mg/kg p.o.) is 18(100) %.
Same read-out and setting: under `O=C(Cc1ccc(NC(=O)c2ccccc2-c2ccc(C(F)(F)F)cc2)cc1)OCC1(C(=O)NCC(F)(F)F)c2ccccc2-c2ccccc21` [Example 1-6] stands 0(100) %.
Take `CCOC(=O)C(COC(=O)Cc1ccc(NC(=O)c2ccccc2-c2ccc(C(F)(F)F)cc2)c(C(=O)N2CCCC2)c1)(C(=O)OCC)c1ccccc1` [Example 2-22]: the “Inhibition … Inhibition rate(%)” value with Syrian hamsters [2] (30 mg/kg p.o.) is recorded as 0(30) %.
For the molecule `CCCNC(=O)C(COC(=O)Cc1ccc(NC(=O)c2ccccc2-c2ccc(C(F)(F)F)cc2)cc1)(C(=O)NCCC)c1ccccc1` [Example 1-35], the “Inhibition … Inhibition rate(%)” value in the data set on Syrian hamsters [2] (300 mg/kg p.o.) was 9(300) %. In the data set with Syrian hamsters [3], the inhibition in vivo at 100 mg/kg amounted to 59%.
On to `COC(=O)C(COC(=O)Cc1ccc(NC(=O)c2ccccc2-c2ccc(C(F)(F)F)cc2)c(C(=O)N(C)C)c1)(C(=O)OC)c1ccccc1` [Example 2-39], for which the “Inhibition … Inhibition rate(%)” value in the data set with Syrian hamsters [2] (100 mg/kg p.o.) is 6(100) %.
